In PMC5622171 (Nature Communications, 2017):

Assays:
Assay in all cases: KINOMEscan kinase profiling
Assay type in all cases: binding
[1] = target: T1, TGFBR1 (Homo sapiens, UniProt P36897); conditions: read-out: %Inhibition by 10 μM SPA70
T1 construct: purchased DiscoverX (Ambit Biosciences) KINOMEscan
Procedure, shortened: (§1)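 KINOMEscan profiling followed a published protocol. Kinases whose inhibition exceeded a set cut-off were then tested in a dilution series beginning at 30 µM.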

[2] = target: T2, TAOK2 (Homo sapiens, UniProt Q9UL54); conditions: read-out: %Inhibition by 10 μM SPA70
T2 construct: purchased DiscoverX (Ambit Biosciences) KINOMEscan
Procedure, shortened: as §1

[3] = target: T3, MEK2 (Homo sapiens, UniProt P36507); conditions: read-out: %Inhibition by 10 μM SPA70
T3 construct: purchased DiscoverX (Ambit Biosciences) KINOMEscan
Procedure, shortened: as §1

[4] = target: T4, MAP3K15 (Homo sapiens, UniProt Q6ZN16); conditions: read-out: %Inhibition by 10 μM SPA70
T4 construct: purchased DiscoverX (Ambit Biosciences) KINOMEscan
Procedure, shortened: as §1

[5] = target: T5, NEK11 (Homo sapiens, UniProt Q8NG66); conditions: read-out: %Inhibition by 10 μM SPA70
T5 construct: purchased DiscoverX (Ambit Biosciences) KINOMEscan
Procedure, shortened: as §1

[6] = target: T6, MAP3K1 (Homo sapiens, UniProt Q13233); conditions: read-out: %Inhibition by 10 μM SPA70
T6 construct: purchased DiscoverX (Ambit Biosciences) KINOMEscan
Procedure, shortened: as §1

[7] = target: T7, PKAC-alpha (Homo sapiens, UniProt P17612)
T7 construct: purchased DiscoverX (Ambit Biosciences) KINOMEscan
Procedure, shortened: as §1

[8] = target: T8, YANK3 (Homo sapiens, UniProt Q86UX6); conditions: read-out: %Inhibition by 10 μM SPA70
T8 construct: purchased DiscoverX (Ambit Biosciences) KINOMEscan
Procedure, shortened: as §1

[9] = target: T9, TRKB (Homo sapiens, UniProt Q16620); conditions: read-out: %Inhibition by 10 μM SPA70
T9 construct: purchased DiscoverX (Ambit Biosciences) KINOMEscan
Procedure, shortened: as §1

[10] = target: T10, RAF1 (Homo sapiens, UniProt P04049); conditions: read-out: %Inhibition by 10 μM SPA70
T10 construct: purchased DiscoverX (Ambit Biosciences) KINOMEscan
Procedure, shortened: as §1

[11] = target: T11, ACVR2B (Homo sapiens, UniProt Q13705)
T11 construct: purchased DiscoverX (Ambit Biosciences) KINOMEscan
Procedure, shortened: as §1

[12] = target: T12, PRKR (Homo sapiens, UniProt P19525)
T12 construct: purchased DiscoverX (Ambit Biosciences) KINOMEscan
Procedure, shortened: as §1

[13] = target: T13, YANK2 (Homo sapiens, UniProt Q9NY57); conditions: read-out: %Inhibition by 10 μM SPA70
T13 construct: purchased DiscoverX (Ambit Biosciences) KINOMEscan
Procedure, shortened: as §1

[14] = target: T14, CASK (Homo sapiens, UniProt O14936); conditions: read-out: %Inhibition by 10 μM SPA70
T14 construct: purchased DiscoverX (Ambit Biosciences) KINOMEscan
Procedure, shortened: as §1

[15] = target: T15, FLT4 (Homo sapiens, UniProt P35916); conditions: read-out: %Inhibition by 10 μM SPA70
T15 construct: purchased DiscoverX (Ambit Biosciences) KINOMEscan
Procedure, shortened: as §1

[16] = target: T16, FGFR2 (Homo sapiens, UniProt P21802); conditions: read-out: %Inhibition by 10 μM SPA70
T16 construct: purchased DiscoverX (Ambit Biosciences) KINOMEscan
Procedure, shortened: as §1

[17] = target: T17, RPS6KA5(Kin.Dom.2-C-terminal) (Homo sapiens, UniProt O75582); conditions: read-out: %Inhibition by 10 μM SPA70
T17 construct: RPS6KA5(Kin.Dom.2-C-terminal); purchased DiscoverX (Ambit Biosciences) KINOMEscan
Procedure, shortened: as §1

[18] = target: T18, TYK2(JH2domain-pseudokinase) (Homo sapiens, UniProt P29597)
T18 construct: TYK2(JH2domain-pseudokinase); purchased DiscoverX (Ambit Biosciences) KINOMEscan
Procedure, shortened: as §1

[19] = target: T19, DAPK3 (Homo sapiens, UniProt O43293); conditions: read-out: %Inhibition by 10 μM SPA70
T19 construct: purchased DiscoverX (Ambit Biosciences) KINOMEscan
Procedure, shortened: as §1

[20] = target: T20, MRCKA (Homo sapiens, UniProt Q5VT25); conditions: read-out: %Inhibition by 10 μM SPA70
T20 construct: purchased DiscoverX (Ambit Biosciences) KINOMEscan
Procedure, shortened: as §1

[21] = target: T21, IRAK3 (Homo sapiens, UniProt Q9Y616); conditions: read-out: %Inhibition by 10 μM SPA70
T21 construct: purchased DiscoverX (Ambit Biosciences) KINOMEscan
Procedure, shortened: as §1

[22] = target: T22, AURKA (Homo sapiens, UniProt O14965); conditions: read-out: %Inhibition by 10 μM SPA70
T22 construct: purchased DiscoverX (Ambit Biosciences) KINOMEscan
Procedure, shortened: as §1

[23] = target: T23, PKMYT1 (Homo sapiens, UniProt Q99640)
T23 construct: purchased DiscoverX (Ambit Biosciences) KINOMEscan
Procedure, shortened: as §1

[24] = target: T24, CSNK1G3 (Homo sapiens, UniProt Q9Y6M4)
T24 construct: purchased DiscoverX (Ambit Biosciences) KINOMEscan
Procedure, shortened: as §1

[25] = target: T25, CSNK1G1 (Homo sapiens, UniProt Q9HCP0)
T25 construct: purchased DiscoverX (Ambit Biosciences) KINOMEscan
Procedure, shortened: as §1

[26] = target: T26, AKT1 (Homo sapiens, UniProt P31749); conditions: read-out: %Inhibition by 10 μM SPA70
T26 construct: purchased DiscoverX (Ambit Biosciences) KINOMEscan
Procedure, shortened: as §1

[27] = target: T27, NEK9 (Homo sapiens, UniProt Q8TD19); conditions: read-out: %Inhibition by 10 μM SPA70
T27 construct: purchased DiscoverX (Ambit Biosciences) KINOMEscan
Procedure, shortened: as §1

[28] = target: T28, DCAMKL1 (Homo sapiens, UniProt O15075)
T28 construct: purchased DiscoverX (Ambit Biosciences) KINOMEscan
Procedure, shortened: as §1

[29] = target: T29, TTK (Homo sapiens, UniProt P33981); conditions: read-out: %Inhibition by 10 μM SPA70
T29 construct: purchased DiscoverX (Ambit Biosciences) KINOMEscan
Procedure, shortened: as §1

[30] = target: T30, CSNK2A2 (Homo sapiens, UniProt P19784); conditions: read-out: %Inhibition by 10 μM SPA70
T30 construct: purchased DiscoverX (Ambit Biosciences) KINOMEscan
Procedure, shortened: as §1

[31] = target: T31, PCTK2 (Homo sapiens, UniProt Q00537); conditions: read-out: %Inhibition by 10 μM SPA70
T31 construct: purchased DiscoverX (Ambit Biosciences) KINOMEscan
Procedure, shortened: as §1

[32] = target: T32, ERN1 (Homo sapiens, UniProt O75460); conditions: read-out: %Inhibition by 10 μM SPA70
T32 construct: purchased DiscoverX (Ambit Biosciences) KINOMEscan
Procedure, shortened: as §1

[33] = target: T33, EPHB4 (Homo sapiens, UniProt P54760); conditions: read-out: %Inhibition by 10 μM SPA70
T33 construct: purchased DiscoverX (Ambit Biosciences) KINOMEscan
Procedure, shortened: as §1

[34] = target: T34, RIPK2 (Homo sapiens, UniProt O43353); conditions: read-out: %Inhibition by 10 μM SPA70
T34 construct: purchased DiscoverX (Ambit Biosciences) KINOMEscan
Procedure, shortened: as §1

[35] = target: T35, ULK3 (Homo sapiens, UniProt Q6PHR2)
T35 construct: purchased DiscoverX (Ambit Biosciences) KINOMEscan
Procedure, shortened: as §1

[36] = target: T36, PCTK3 (Homo sapiens, UniProt Q07002); conditions: read-out: %Inhibition by 10 μM SPA70
T36 construct: purchased DiscoverX (Ambit Biosciences) KINOMEscan
Procedure, shortened: as §1

[37] = target: T37, PRKG1 (Homo sapiens, UniProt Q13976); conditions: read-out: %Inhibition by 10 μM SPA70
T37 construct: purchased DiscoverX (Ambit Biosciences) KINOMEscan
Procedure, shortened: as §1

[38] = target: T38, TGFBR2 (Homo sapiens, UniProt P37173); conditions: read-out: %Inhibition by 10 μM SPA70
T38 construct: purchased DiscoverX (Ambit Biosciences) KINOMEscan
Procedure, shortened: as §1

[39] = target: T39, TRKA (Homo sapiens, UniProt P04629); conditions: read-out: %Inhibition by 10 μM SPA70
T39 construct: purchased DiscoverX (Ambit Biosciences) KINOMEscan
Procedure, shortened: as §1

[40] = target: T40, NEK6 (Homo sapiens, UniProt Q9HC98); conditions: read-out: %Inhibition by 10 μM SPA70
T40 construct: purchased DiscoverX (Ambit Biosciences) KINOMEscan
Procedure, shortened: as §1

[41] = target: T41, PHKG2 (Homo sapiens, UniProt P15735); conditions: read-out: %Inhibition by 10 μM SPA70
T41 construct: purchased DiscoverX (Ambit Biosciences) KINOMEscan
Procedure, shortened: as §1

T31 sequence (Q00537 whole entry): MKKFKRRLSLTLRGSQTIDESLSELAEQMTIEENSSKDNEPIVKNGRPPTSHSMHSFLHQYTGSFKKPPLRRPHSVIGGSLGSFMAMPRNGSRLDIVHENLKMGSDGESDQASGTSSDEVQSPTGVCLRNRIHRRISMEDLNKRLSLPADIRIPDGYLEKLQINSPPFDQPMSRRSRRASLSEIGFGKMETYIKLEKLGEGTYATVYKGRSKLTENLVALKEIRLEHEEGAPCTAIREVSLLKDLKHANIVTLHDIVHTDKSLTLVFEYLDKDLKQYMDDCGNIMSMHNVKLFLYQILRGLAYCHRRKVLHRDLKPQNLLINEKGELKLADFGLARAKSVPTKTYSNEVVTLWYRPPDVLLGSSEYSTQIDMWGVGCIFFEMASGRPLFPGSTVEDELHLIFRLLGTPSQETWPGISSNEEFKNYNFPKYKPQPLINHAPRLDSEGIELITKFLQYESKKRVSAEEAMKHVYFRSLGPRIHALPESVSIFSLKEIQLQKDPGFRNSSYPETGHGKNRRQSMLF
T6 sequence (Q13233 whole entry): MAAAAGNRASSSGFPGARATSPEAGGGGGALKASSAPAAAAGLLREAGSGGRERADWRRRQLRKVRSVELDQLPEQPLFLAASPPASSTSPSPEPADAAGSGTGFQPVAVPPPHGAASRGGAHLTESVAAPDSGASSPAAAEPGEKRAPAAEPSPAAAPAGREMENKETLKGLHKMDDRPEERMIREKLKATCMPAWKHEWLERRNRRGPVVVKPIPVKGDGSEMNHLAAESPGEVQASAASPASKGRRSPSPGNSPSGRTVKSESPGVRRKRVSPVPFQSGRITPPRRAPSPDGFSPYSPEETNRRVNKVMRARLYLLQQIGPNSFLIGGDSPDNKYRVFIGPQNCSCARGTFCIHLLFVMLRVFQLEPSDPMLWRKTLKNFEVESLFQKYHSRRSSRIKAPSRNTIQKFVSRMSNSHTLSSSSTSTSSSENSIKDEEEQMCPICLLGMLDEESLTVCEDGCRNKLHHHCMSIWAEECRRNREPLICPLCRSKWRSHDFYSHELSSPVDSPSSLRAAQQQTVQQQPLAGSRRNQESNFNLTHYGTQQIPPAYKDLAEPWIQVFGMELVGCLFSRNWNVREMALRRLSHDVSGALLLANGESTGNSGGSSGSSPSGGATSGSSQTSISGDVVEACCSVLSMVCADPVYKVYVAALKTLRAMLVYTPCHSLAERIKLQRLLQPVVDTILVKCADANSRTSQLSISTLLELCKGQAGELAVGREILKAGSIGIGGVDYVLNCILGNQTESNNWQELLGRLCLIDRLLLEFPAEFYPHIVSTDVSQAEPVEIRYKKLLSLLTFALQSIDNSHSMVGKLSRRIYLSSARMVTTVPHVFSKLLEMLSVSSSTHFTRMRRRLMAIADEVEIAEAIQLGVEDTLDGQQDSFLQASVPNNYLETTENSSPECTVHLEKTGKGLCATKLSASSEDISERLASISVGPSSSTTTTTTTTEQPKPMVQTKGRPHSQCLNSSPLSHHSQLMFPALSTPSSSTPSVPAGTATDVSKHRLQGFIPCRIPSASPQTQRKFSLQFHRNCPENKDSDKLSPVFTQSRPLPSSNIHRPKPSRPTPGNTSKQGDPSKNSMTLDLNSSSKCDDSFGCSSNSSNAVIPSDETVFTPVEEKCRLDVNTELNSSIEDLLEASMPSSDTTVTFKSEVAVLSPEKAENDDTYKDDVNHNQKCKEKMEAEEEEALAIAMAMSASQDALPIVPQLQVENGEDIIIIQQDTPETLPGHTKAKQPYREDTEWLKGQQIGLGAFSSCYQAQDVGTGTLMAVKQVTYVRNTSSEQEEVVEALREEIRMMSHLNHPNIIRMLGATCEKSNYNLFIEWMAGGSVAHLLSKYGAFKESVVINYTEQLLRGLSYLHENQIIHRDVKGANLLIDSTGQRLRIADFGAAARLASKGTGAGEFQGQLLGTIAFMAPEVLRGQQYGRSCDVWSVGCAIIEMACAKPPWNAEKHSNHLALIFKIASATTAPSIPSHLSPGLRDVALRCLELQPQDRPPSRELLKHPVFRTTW
T15 sequence (P35916 25-1363): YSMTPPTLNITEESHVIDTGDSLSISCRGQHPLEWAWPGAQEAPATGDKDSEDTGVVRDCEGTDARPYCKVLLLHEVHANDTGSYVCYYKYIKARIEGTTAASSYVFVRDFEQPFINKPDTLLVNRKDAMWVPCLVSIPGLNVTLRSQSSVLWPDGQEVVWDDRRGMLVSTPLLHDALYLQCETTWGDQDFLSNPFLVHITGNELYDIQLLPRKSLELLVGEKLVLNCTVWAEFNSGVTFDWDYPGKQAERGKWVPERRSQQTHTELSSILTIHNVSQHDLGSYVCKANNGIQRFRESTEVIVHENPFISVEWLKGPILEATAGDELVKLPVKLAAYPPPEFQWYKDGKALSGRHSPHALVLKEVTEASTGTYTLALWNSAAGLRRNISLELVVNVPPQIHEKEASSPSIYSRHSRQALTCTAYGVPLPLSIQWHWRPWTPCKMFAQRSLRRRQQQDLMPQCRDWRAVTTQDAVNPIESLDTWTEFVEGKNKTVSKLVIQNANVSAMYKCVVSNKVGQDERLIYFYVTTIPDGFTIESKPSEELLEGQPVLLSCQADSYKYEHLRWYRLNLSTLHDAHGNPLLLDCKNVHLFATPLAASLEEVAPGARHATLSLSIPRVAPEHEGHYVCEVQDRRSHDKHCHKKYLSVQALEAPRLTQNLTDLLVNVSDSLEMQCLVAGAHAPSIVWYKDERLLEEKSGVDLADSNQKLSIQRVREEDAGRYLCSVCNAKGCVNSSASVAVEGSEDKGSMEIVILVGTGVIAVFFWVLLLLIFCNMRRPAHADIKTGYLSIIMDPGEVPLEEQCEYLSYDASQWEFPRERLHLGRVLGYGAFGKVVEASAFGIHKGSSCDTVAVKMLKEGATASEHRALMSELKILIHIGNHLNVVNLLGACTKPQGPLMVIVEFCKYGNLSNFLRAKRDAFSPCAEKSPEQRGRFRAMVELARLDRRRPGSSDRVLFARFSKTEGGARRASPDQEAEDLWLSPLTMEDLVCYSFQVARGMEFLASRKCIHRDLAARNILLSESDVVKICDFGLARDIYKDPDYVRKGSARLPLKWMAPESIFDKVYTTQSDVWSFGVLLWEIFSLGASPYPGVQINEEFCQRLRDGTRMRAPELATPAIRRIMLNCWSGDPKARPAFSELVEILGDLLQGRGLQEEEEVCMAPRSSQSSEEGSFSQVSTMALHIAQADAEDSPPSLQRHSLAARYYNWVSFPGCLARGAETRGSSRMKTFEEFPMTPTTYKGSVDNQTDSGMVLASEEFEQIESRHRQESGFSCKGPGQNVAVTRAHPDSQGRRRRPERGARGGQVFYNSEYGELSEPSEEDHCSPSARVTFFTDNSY
T22 sequence (O14965 whole entry): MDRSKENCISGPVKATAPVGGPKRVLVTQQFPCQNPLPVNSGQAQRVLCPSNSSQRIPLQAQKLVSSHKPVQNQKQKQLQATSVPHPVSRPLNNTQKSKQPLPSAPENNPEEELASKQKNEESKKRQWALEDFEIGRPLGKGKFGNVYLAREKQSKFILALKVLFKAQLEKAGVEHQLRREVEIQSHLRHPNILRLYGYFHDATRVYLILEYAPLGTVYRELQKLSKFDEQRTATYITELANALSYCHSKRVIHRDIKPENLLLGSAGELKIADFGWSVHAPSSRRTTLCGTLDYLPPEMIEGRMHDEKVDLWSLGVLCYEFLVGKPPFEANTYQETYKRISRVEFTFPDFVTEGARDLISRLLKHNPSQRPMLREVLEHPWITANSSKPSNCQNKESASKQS
T35 sequence (Q6PHR2 whole entry): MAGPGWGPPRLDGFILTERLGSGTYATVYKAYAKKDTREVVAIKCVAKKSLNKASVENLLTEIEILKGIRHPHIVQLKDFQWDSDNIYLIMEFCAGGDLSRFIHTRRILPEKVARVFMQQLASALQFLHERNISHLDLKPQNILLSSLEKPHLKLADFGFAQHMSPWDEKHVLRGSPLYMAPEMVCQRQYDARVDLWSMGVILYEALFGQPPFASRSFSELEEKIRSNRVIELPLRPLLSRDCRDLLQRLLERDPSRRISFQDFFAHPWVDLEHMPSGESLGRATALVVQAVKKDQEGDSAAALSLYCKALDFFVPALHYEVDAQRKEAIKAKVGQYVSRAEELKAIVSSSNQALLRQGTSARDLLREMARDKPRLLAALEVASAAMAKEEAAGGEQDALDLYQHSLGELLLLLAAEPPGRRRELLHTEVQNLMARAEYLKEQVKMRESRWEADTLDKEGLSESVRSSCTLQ
T13 sequence (Q9NY57 whole entry): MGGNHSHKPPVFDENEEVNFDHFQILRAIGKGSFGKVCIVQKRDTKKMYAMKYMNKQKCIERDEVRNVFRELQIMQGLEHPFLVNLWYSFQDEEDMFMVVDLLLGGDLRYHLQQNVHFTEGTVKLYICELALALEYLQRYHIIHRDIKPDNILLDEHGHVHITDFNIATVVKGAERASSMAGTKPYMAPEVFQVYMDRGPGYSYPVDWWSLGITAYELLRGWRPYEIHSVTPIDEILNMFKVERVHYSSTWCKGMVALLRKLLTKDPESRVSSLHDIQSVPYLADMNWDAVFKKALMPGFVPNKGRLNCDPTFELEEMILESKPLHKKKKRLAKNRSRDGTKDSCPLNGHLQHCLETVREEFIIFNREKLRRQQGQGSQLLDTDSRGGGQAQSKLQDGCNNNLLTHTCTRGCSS
T41 sequence (P15735 whole entry): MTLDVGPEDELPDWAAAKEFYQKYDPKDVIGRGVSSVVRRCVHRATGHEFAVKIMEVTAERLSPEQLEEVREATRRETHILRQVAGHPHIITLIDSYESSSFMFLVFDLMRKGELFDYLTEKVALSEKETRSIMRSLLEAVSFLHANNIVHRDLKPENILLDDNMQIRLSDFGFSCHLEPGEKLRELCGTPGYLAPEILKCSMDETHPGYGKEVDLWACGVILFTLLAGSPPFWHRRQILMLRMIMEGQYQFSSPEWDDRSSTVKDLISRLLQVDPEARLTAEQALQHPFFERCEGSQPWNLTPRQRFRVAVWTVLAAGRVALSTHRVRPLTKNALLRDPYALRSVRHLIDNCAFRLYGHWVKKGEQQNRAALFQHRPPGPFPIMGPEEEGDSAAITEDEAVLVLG

SMILES: COc1ccc(OC)c(-n2nnc(S(=O)(=O)c3ccc(C(C)(C)C)cc3)c2C)c1 [SPA70]
- inhibition at 10 µM [1]: 20%
- inhibition at 10 µM [2]: 21%
- inhibition at 10 µM [3]: 4%
- inhibition at 10 µM [4]: 0%
- inhibition at 10 µM [5]: 34%
- inhibition at 10 µM [6]: 0%
- %Inhibition by 10 μM SPA70 [7]: not inhibited
- inhibition at 10 µM ([7]; read-out: %Inhibition by 10 μM SPA70): 0%
- inhibition at 10 µM [8]: 0%
- inhibition at 10 µM [9]: 0%
- inhibition at 10 µM [10]: 19%
- %Inhibition by 10 μM SPA70 [11]: 0%
- %Inhibition by 10 μM SPA70 [12]: 26%
- inhibition at 10 µM [13]: 0%
- inhibition at 10 µM [14]: 9%
- inhibition at 10 µM [15]: 2%
- inhibition at 10 µM [16]: 0%
- inhibition at 10 µM [17]: 37%
- %Inhibition by 10 μM SPA70 [18]: 0%
- inhibition at 10 µM [19]: 0%
- inhibition at 10 µM [20]: 0%
- inhibition at 10 µM [21]: 15%
- inhibition at 10 µM [22]: 0%
- %Inhibition by 10 μM SPA70 [23]: 38%
- %Inhibition by 10 μM SPA70 [24]: 0%
- %Inhibition by 10 μM SPA70 [25]: 0%
- inhibition at 10 µM [26]: 0%
- inhibition at 10 µM [27]: 0%
- %Inhibition by 10 μM SPA70 [28]: 0%
- inhibition at 10 µM [29]: 0%
- inhibition at 10 µM [30]: 10%
- inhibition at 10 µM [31]: 0%
- inhibition at 10 µM [32]: 0%
- inhibition at 10 µM [33]: 0%
- inhibition at 10 µM [34]: 0%
- %Inhibition by 10 μM SPA70 [35]: 2%
- inhibition at 10 µM [36]: 9%
- inhibition at 10 µM [37]: 0%
- inhibition at 10 µM [38]: 1%
- inhibition at 10 µM [39]: 0%
- inhibition at 10 µM [40]: 0%
- inhibition at 10 µM [41]: 0%
